Like-named read-outs stand apart in the source and are kept apart here. Values belong to the molecule of their own block, whether it stands above or below them.
Experiments:
[1] = tested on: GPR17+ cells (newly differentiated oligodendrocytes); conditions: mouse
[2] = tested on: Oligodendrocyte progenitor cells (OPCs)
Experimental: (§1) Cortices from postnatal day (P) 1-3 rats were dissected and collected into ice cold Hank's Balanced Salt Solution (HBSS). […] Briefly, the cortical cell suspension was centrifuged and washed with buffer (0.5% BSA in PBS) and labeled with Anti-A2B5 MicroBeads (10 μL beads per 1×10^7 cells) for 15 minutes at 4° C. Following the incubation, cells were washed once with BSA buffer to remove unlabeled beads. A2B^5 positive cells were eluted on the column using the AutoMACS® (Miltenyi, as per manufacturer's protocol using “possel-s” program). Eluted cells were further washed twice with OPC growth media. Cell count was performed using Countess III cell counter (ThermoFisher; AMQAX2000) and cells were plated.
(§2) A2B5+ OPCs were plated in poly-d-lysine (PDL) coated T75 flask at a density of ˜3 million cells per flask. […] TrypLE was normalized by adding 10 mL growth media and cells were centrifuged at 1400 rpm for 10 minutes. […] The plates were allowed to sit at room temperature for 15 minutes to ensure proper dispersion of cells in a well. The plates were then transferred to the incubator (37° C.; 5% CO2).
(§3) Cells were then incubated for 72 hours at 37° C., 5% CO2 before immunostaining for MBP marker expression.
(§4) Following 72 hours of treatment, cells were fixed with 4% paraformaldehyde for 15 minutes then washed three times in DPBS. Prior to staining, cells were blocked for 15 minutes in 10% normal goat serum containing 1% BSA and 0.1% Triton X-100 in DPBS. Primary antibody (MBP @ 1:2000; Abcam AB7349) was applied to cells overnight at 4° C. in incubation solution containing 1% normal goat serum, 1% BSA, and 0.1% Triton X-100 in DPBS.
(§5) The number of differentiated MBP+ cells was normalized to the total nuclei count and percent differentiated MBP+ cells were reported.

PDGFRα = PDGFRα (Homo sapiens (Human), UniProt P16234); assay: PDGFRα kinase enzyme assay (Promega PDGFRα Kinase Enzyme System, ADP-Glo); assay type: biochemical; conditions: 11-point dose response, 10,000 nM to 0.169 nM, 150 uM ATP, BLQ = below limit of quantitation
PDGFRα, sequence (P16234 24-1089): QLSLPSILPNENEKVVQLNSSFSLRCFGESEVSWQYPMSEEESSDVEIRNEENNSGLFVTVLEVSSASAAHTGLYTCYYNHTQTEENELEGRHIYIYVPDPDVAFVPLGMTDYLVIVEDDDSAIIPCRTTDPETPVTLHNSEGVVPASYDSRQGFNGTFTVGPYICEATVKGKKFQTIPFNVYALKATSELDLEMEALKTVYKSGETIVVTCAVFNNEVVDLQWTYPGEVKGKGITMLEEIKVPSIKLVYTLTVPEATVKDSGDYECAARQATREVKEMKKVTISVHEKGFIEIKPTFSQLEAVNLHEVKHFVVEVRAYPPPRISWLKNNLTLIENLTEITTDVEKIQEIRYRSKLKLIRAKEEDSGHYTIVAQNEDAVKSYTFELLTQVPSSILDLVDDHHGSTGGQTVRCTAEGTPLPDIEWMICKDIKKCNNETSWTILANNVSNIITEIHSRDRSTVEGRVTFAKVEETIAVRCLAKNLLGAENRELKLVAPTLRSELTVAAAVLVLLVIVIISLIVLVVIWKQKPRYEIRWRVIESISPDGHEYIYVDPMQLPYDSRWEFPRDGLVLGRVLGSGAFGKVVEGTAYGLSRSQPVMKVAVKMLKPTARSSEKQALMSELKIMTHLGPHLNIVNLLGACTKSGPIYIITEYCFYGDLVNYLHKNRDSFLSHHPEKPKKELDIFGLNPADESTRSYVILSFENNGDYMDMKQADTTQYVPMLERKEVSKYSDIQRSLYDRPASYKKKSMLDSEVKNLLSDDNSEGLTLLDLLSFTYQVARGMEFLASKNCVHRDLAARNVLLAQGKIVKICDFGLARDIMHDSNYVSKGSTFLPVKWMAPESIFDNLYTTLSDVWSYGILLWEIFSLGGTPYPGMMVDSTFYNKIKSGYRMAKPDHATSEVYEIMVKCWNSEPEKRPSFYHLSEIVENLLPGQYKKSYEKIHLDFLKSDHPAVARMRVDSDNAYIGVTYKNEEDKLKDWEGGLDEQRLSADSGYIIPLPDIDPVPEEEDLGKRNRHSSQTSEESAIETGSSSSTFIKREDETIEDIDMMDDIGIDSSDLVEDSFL
Outline: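 Purified PDGFRα protein (20 ng) reacted with test compound per the Promega kinase system protocol. ADP formed was measured by ADP-Glo luminescence against a standard curve, giving IC50.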

[3] = tested on: Oligodendrocyte progenitor cells (OPCs); remark: listed apart in the source
[4] = tested on: Oligodendrocyte progenitor cells (OPCs); assay: In vitro OPC differentiation assay, MBP expression (immunocytochemistry); conditions: 72 hours of treatment; fold change over vehicle
Experimental: as §1, §2, §3, §4, §5

[5] = tested on: newly generated, GPR17+, oligodendrocytes; assay: in vivo GPR17 assay / in vivo OPC differentiation assay (Examples 242, 245); conditions: healthy mice, single oral dose of 0.1, 0.33, 1 or 3.3 mg/kg, versus vehicle, n=8 mice per group
Experimental: FIGS. 2A and 2B provide representative immunohistochemistry images comparing the in vivo generation of new oligodendrocytes in the brains of mice treated with one of the following: (i) vehicle control (FIG. 2A), or (ii) PDGFRα inhibitor (Compound 6) (PO 5 mg/kg; single dose) (FIG. 2B). The newly generated oligodendrocytes are identified based on upregulation of GPR 17 expression.
Healthy mice received a single oral dose of 0.1 (“2”), 0.33 (“3”), 1 (“4”), or 3.3 (“5”) mg/kg of PDGFRα inhibitor (Compound 26). Control mice received a vehicle control (“1”). The number of newly generated, GPR17+, oligodendrocytes/mm^2 was quantitated via automated image analysis from sections spanning the anterio-posterior axis of the brain. […]
As described elsewhere in the present disclosure, some exemplary PDGFRα inhibitors of the present disclosure are capable of have greater therapeutic effect than inhibitors known in the art, e.g., when an inhibitor known in the art and an exemplary inhibitor provided herein are assayed against a vehicle control. […] For example, in some aspects, a PDGFRα inhibitor of the present disclosure can achieve greater than 2-fold increase in GPR17 expression compared to a vehicle control at a dose of less than 50 mg/kg, as measured using an in vivo GPR17 assay (such as that described in Example 242). […]

[6] = tested on: Oligodendrocyte progenitor cells (OPCs); assay: In vitro OPC differentiation assay, GPR17 expression (immunocytochemistry); conditions: 72 hours, fold change over vehicle
[7] = tested on: GPR17+ cells (newly differentiated oligodendrocytes); assay: In vivo OPC differentiation, GPR17+ cells in brain; conditions: Mus musculus, po, 24 h, read-out: GPR17 Fold Induction (Over Vehicle)

In vivo GPR17+ cells, GPR17 Fold Induction (Over Vehicle) [1]: 1.36
Molecule: CN(C)CCC=C1c2ccccc2COc2ccccc21 [Doxepin]

Molecule: 3-[4-(5-benzylpyrimidin-2-yl)piperazin-1-yl]-6-(1-methyl-1H-pyrazol-3-yl)pyrazolo[1,5-a]pyridine [Compound 38]
MBP Fold Induction (Over vehicle) [2]: 1.41
IC50 (PDGFRα; read-out: IC50 Values on PDGFRα Kinase Inhibition, IC50): 4.75 µM
GPR17 Fold Induction (Over Vehicle; 3 μM) [3]: 7.04
GPR17 Fold Induction (Over Vehicle; 5 μM) [3]: 6.02

IC50 Values on PDGFRα Kinase Inhibition, IC50 (nM) (PDGFRα): BLQ
MBP Fold Induction (Over vehicle) [4]: 5.23
GPR17 Fold Induction (Over Vehicle; 3 μM) ([6]; 3 μM (10× concentration, final 0.3 μM)): 13.87
GPR17 Fold Induction (Over Vehicle; 5 μM) ([6]; 5 μM (10× concentration, final 0.5 μM)): 4.97
Molecule: Cn1cc(-c2ccc3c(N4CCN(c5ncc(C(O)c6ccc(F)cc6)cn5)CC4)cnn3c2)cn1 (centres unmarked) [Compound 26, (4-fluorophenyl)(2-{4-[6-(1-methyl-1H-pyrazol-4-yl)pyrazolo[1,5-a]pyridin-3-yl]piperazin-1-yl}pyrimidin-5-yl)methanol]
number of newly generated, GPR17+, oligodendrocytes/mm^2 [5]: dose responsive induction
fold induction at 3.3 mg/kg [7]: 12.1
